Reference: US20250241848A1 (priority 2011, published 2025)

Tested on: axillary sweat production
Settings: human, in vivo

Row | Molecule | greater effectiveness in reducing sweat production than placebo | greater reduction in sweat production than the subjects in the control group | reduction in sweat production (on average) | subjects with at least a 30% reduction in sweat production compared to Baseline visit
1 | CCCCCCCCCCCCCC(=O)OC(C)C [Isopropyl Myristate] | 191% | 195% | 103 mg | 55%
2 | CCCOC(=O)c1ccc(O)cc1 [Propylparaben] | 245% | 337% | 177 mg | 70%
3 | Polysorbate 80 | 280% | 300% | 159 mg | 80%
